# Data: US9840508B2, “N-acyl-(3-substituted)-(8-methyl)-5,6-dihydro-[1,2,4]triazolo[4,3-a] pyrazines as selective NK-3 receptor antagonists, pharmaceutical composition, methods for use in NK-3 receptor-mediated disorders” (EUROSCREEN SA, priority 2013, dated 2017)
# Where two headings read alike, the source gives them in different places.
# How the values were obtained:
# human NK-1 receptor = human NK-1 receptor (Homo sapiens (Human), UniProt P25103); assay: Selectivity binding assay, human NK-1 ([3H] substance P); conditions: CHO cell membranes; 2 nM [3H] substance P; read-out: hNK-1 (Ki)
# Experimental: (§1) Selectivity of the compounds of the invention was determined over the other human NK receptors, namely NK-1 and NK-2 receptors.
# The affinity of compounds of the invention for the NK-1 receptor was evaluated in CHO recombinant cells which express the human NK-1 receptor. Membrane suspensions were prepared from these cells. The following radioligand: [^3H] substance P (PerkinElmer Cat#NET111520) was used in this assay. Binding assays were performed in a 50 mM Tris/5 mM MnCl2/150 mM NaCl/0.1% BSA at pH 7.4. Binding assays consisted of 25 μl of membrane suspension (approximately 5 μg of protein/well in a 96 well plate), 50 μl of compound or reference ligand (Substance P) at increasing concentrations (diluted in assay buffer) and 2 nM [^3H] substance P. The plate was incubated 60 min at 25° C. in a water bath and then filtered over GF/C filters (Perkin Elmer, 6005174, presoaked in 0.5% PEI for 2 h at room temperature) with a Filtration unit (Perkin Elmer). The radioactivity retained on the filters was measured by using the TopCount-NXT reader (Packard). Competition curves were obtained for compounds of the invention and the concentrations of compounds which displaced 50% of bound radioligand (IC50) were determined and then apparent inhibition constant Ki values were calculated by the following equation: Ki=IC50/(1+[L]/KD) where [L] is the concentration of free radioligand and KD is its dissociation constant at the receptor, derived from saturation binding experiments (Cheng and Prusoff, 1973).
# human NK-3 receptor [1] = molecular target: T1, human NK-3 receptor (Homo sapiens (Human), UniProt P29371); assay: 3H-SB222200 binding competition assay with human NK-3 receptor
# Experimental: The affinity of compounds of the invention for the human NK-3 receptor was determined by measuring the ability of compounds of the invention to competitively and reversibly displace a well-characterized NK-3 radioligand in a concentration-dependent manner.
# ^3H-SB222200 Binding Competition Assay with Human NK-3 Receptor
# The ability of compounds of the invention to inhibit the binding of the NK-3 receptor selective antagonist ^3H-SB222200 was assessed by an in vitro radioligand binding assay. Membranes were prepared from Chinese hamster ovary recombinant cells stably expressing the human NK-3 receptor. The membranes were incubated with 5 nM ^3H-SB222200 (ARC) in a HEPES 25 mM/NaCl 0.1M/CaCl2 1 mM/MgCl2 5 mM/BSA 0.5%/Saponin 10 μg/ml buffer at pH 7.4 and various concentrations of compounds of the invention. The amount of ^3H-SB222200 bound to the receptor was determined after filtration by the quantification of membrane associated radioactivity using the TopCount-NXT reader (Packard).
# plasma protein = assay: Determination of plasma protein binding (rapid equilibrium dialysis); format: in vitro ADME; conditions: 4 hours at 37° C.
# Description: Determination of Plasma Protein Binding
# The pharmacokinetic and pharmacodynamic properties of chemicals/drugs are largely a function of the reversible binding of chemicals to plasma or serum proteins. Generally, only the unbound or “free fraction” of a drug is available for diffusion or transport across cell membranes, and for interaction with a pharmacological/toxicological target. Consequently, the extent of the plasma protein binding (PPB) of a compound influences its action as well as its distribution and elimination.
# The determination of plasma protein binding (PPB) of a compound is enabled by equilibrium dialysis, an accepted and standard method for reliable estimation of the non-bound drug fraction in plasma. RED (Rapid Equilibrium Dialysis) device insert is made of two side-by-side chambers separated by an O-ring-sealed vertical cylinder of dialysis membrane (MWCO˜8,000). Plasma containing drug (at 5 μM or blood concentrations otherwise corresponding to efficacious doses, if known) is added to one chamber while buffer is added to the second. After 4 hours incubation at 37° C. under shaking, an aliquot is removed from each chamber and analyzed by a LC-MS/MS procedure enables the determination of both free and bound drug.
# The percentages provided in Table 4 represent for the compounds of the invention the bound drug fraction to the plasma protein. The “free fraction” may be calculated as 100%−% rPPB (i.e. the complementary percentage of that disclosed in Table 4, corresponding to the drug concentration that is unbound and therefore available to engage biological target and elicit pharmacological activity).
# human NK-2 receptor = human NK-2 receptor (Homo sapiens (Human), UniProt P21452); assay: Selectivity binding assay, human NK-2 ([125I]-Neurokinin A); conditions: CHO cell membranes; 0.1 nM [125I]-Neurokinin A; read-out: hNK-2 (Ki)
# Experimental: as §1
# The affinity of compounds of the invention for the NK-2 receptor was evaluated in CHO recombinant cells which express the human NK-2 receptor. Membrane suspensions were prepared from these cells. The following radioligand [^125I]-Neurokinin A (PerkinElmer Cat#NEX252) was used in this assay. Binding assays were performed in a 25 mM HEPES/1 mM CaCl2/5 mM MgCl2/0.5% BSA/10 μg/ml saponin, at pH 7.4. Binding assays consisted of 25 μl of membrane suspension (approximately 3.75 μg of protein/well in a 96 well plate), 50 μl of compound or reference ligand (Neurokinin A) at increasing concentrations (diluted in assay buffer) and 0.1 nM [^125I]-Neurokinin A. The plate was incubated 60 min at 25° C. in a water bath and then filtered over GF/C filters (Perkin Elmer, 6005174, presoaked in assay buffer without saponine for 2 h at room temperature) with a Filtration unit (Perkin Elmer). The radioactivity retained on the filters was measured by using the TopCount-NXT reader (Packard). Competition curves were obtained for compounds of the invention and the concentrations of compounds which displaced 50% of bound radioligand (IC50) were determined and then apparent inhibition constant Ki values were calculated by the following equation: Ki=IC50/(1+[L]/KD) where [L] is the concentration of free radioligand and KD is its dissociation constant at the receptor, derived from saturation binding experiments (Cheng and Prusoff, 1973).
# human NK-3 receptor [2] = molecular target: T1, human NK-3 receptor; assay: Aequorin functional assay with human NK-3 receptor (antagonist testing); format: cell-based; conditions: CHO cells expressing human NK-3 receptor; agonist NKA at EC80 (3 nM); read-out: Functional assay: Aequorin assay with human NK-3 receptor hNK-3 - AEQ (antagonist IC50)
# Experimental: Aequorin Assay with Human NK-3 Receptor
# Changes in intracellular calcium levels are a recognized indicator of G protein-coupled receptor activity. The efficacy of compounds of the invention to inhibit NKA-mediated NK-3 receptor activation was assessed by an in vitro Aequorin functional assay. Chinese Hamster Ovary recombinant cells expressing the human NK-3 receptor and a construct that encodes the photoproteinapoaequorin were used for this assay. In the presence of the cofactor coelenterazine, apoaequorin emits a measurable luminescence that is proportional to the amount of intracellular (cytoplasmic) free calcium.
# The antagonist activity of compounds of the invention is measured following pre-incubation (3 minutes) of the compound (at various concentrations) with the cells, followed by addition of the reference agonist (NKA) at a final concentration equivalent to the EC80 (3 nM) and recording of emitted light (FDSS 6000 Hamamatsu) over the subsequent 90-second period. The intensity of the emitted light is integrated using the reader software. Compound antagonist activity is measured based on the concentration-dependent inhibition of the luminescence response to the addition of Neurokinin A.
# The IC50 values shown in Table 2 indicate that compounds of the invention are potent NK-3 antagonist compounds.
# [3] = CHO cell membranes, 5 nM 3H-SB222200, Table 2, read-out: Competitive binding assay with human NK-3 receptor hNK-3 (Ki)
# [4] = Table 3 (selectivity table), read-out: hNK-3 (Ki)
# Sequence of human NK-1 receptor (P25103 whole entry): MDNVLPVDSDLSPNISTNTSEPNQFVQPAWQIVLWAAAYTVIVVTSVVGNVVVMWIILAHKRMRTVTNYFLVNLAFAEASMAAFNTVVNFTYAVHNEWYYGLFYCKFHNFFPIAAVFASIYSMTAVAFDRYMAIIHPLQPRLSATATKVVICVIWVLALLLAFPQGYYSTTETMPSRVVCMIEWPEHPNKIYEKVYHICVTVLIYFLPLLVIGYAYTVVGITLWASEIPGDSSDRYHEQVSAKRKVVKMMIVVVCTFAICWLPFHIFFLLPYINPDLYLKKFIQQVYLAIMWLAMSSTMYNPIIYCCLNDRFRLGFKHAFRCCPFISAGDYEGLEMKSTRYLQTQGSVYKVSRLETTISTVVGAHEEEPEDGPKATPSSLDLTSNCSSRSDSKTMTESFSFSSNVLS
# T1 sequence (P29371 whole entry): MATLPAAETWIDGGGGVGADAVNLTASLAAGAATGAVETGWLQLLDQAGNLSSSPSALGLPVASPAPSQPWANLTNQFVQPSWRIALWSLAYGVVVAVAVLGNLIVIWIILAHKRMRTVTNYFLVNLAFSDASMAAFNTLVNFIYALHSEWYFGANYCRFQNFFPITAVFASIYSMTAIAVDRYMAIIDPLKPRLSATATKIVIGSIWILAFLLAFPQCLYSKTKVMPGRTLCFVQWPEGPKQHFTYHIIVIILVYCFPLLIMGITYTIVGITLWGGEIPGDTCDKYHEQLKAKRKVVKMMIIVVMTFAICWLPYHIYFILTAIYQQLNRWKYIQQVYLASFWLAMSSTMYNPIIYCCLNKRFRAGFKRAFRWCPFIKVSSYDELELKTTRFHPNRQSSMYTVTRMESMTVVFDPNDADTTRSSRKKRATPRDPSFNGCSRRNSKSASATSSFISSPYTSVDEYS
# Sequence of human NK-2 receptor (P21452 whole entry): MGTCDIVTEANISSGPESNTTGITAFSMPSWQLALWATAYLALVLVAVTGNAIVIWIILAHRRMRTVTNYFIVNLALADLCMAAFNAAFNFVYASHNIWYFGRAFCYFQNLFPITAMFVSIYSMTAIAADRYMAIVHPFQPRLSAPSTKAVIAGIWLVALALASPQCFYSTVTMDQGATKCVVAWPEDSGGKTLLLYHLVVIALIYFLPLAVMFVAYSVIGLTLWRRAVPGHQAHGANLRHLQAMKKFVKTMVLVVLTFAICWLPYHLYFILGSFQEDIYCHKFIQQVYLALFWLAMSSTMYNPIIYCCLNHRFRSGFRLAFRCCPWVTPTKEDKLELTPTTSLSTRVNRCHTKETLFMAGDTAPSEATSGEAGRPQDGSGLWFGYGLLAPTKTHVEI
Structure (SMILES),Ki (human NK-1 receptor) [nM],Ki (human NK-3 receptor [1]; [3]) [nM],Ki (human NK-3 receptor [1]; [4]) [nM],"Exposure (% rPPB), bound drug fraction to the plasma protein (plasma protein) [%]",Ki (human NK-2 receptor) [nM],IC50 (human NK-3 receptor [2]) [nM]
"C[C@@H]1c2nnc(-c3csc(C(F)(F)F)n3)n2CCN1C(=O)c1ccc(F)c(Cl)c1 [Compound 16, (R)-(3-chloro-4-fluorophenyl)(8-methyl-3-(2-(trifluoromethyl)thiazol-4-yl)-5,6-dihydro-[1,2,4]triazolo[4,3-a]pyrazin-7(8H)-yl)methanone]",9400,14,14,82,1500,23
"C[C@@H]1c2nnc(-c3csc(C(F)(F)F)n3)n2CCN1C(=O)c1ccc(Cl)c(F)c1 [Compound 17, (R)-(4-chloro-3-fluorophenyl)(8-methyl-3-(2-(trifluoromethyl)thiazol-4-yl)-5,6-dihydro-[1,2,4]triazolo[4,3-a]pyrazin-7(8H)-yl)methanone]",12000,22,22,84,5200,37
"Cc1ccc(-c2nnc3n2CCN(C(=O)c2ccc(Cl)c(F)c2)[C@@H]3C)o1 [Compound 9, (R)-(4-chloro-3-fluorophenyl)(8-methyl-3-(5-methylfuran-2-yl)-5,6-dihydro-[1,2,4]triazolo[4,3-a]pyrazin-7(8H)-yl)methanone]",13000,38,38,68,14000,53
"C[C@@H]1c2nnc(-c3csc(C(F)(F)F)n3)n2CCN1C(=O)c1ccc(F)c(F)c1 [Compound 13, (R)-(3,4-difluorophenyl)(8-methyl-3-(2-(trifluoromethyl)thiazol-4-yl)-5,6-dihydro-[1,2,4]triazolo[4,3-a]pyrazin-7(8H)-yl)methanone]",21000,20,20,51,7000,26
"C[C@@H]1c2nnc(-c3csc(C(F)(F)F)n3)n2CCN1C(=O)c1ccc(F)c(F)c1F [Compound 14, (R)-(8-methyl-3-(2-(trifluoromethyl)thiazol-4-yl)-5,6-dihydro-[1,2,4]triazolo[4,3-a]pyrazin-7(8H)-yl)(2,3,4-trifluorophenyl)methanone]",28000,40,40,69,15000,59
"Cc1nc(-c2nnc3n2CCN(C(=O)c2ccc(F)cc2)[C@@H]3C)cs1 [Compound 2, (R)-(4-fluorophenyl)(8-methyl-3-(2-methylthiazol-4-yl)-5,6-dihydro-[1,2,4]triazolo[4,3-a]pyrazin-7(8H)-yl)methanone]",> 30000,100,100,17,> 30000,160
"Cc1ccc(-c2nnc3n2CCN(C(=O)c2ccc(Cl)cc2)[C@@H]3C)o1 [Compound 10, (R)-(4-chlorophenyl)(8-methyl-3-(5-methylfuran-2-yl)-5,6-dihydro-[1,2,4]triazolo[4,3-a]pyrazin-7(8H)-yl)methanone]",25000,36,36,56,23000,74

# Continued, values first:
Ki (human NK-1 receptor) [nM],Ki (human NK-3 receptor [1]; [3]) [nM],Ki (human NK-3 receptor [1]; [4]) [nM],"Exposure (% rPPB), bound drug fraction to the plasma protein (plasma protein) [%]",Ki (human NK-2 receptor) [nM],IC50 (human NK-3 receptor [2]) [nM],Structure (SMILES)
24000,13,13,60,3500,24,"C[C@@H]1c2nnc(-c3csc(C(F)(F)F)n3)n2CCN1C(=O)c1cc(F)c(F)c(F)c1 [Compound 15, (R)-(8-methyl-3-(2-(trifluoromethyl)thiazol-4-yl)-5,6-dihydro-[1,2,4]triazolo[4,3-a]pyrazin-7(8H)-yl)(3,4,5-trifluorophenyl)methanone]"
> 30000,52,52,30,30000,72,"Cc1ccc(-c2nnc3n2CCN(C(=O)c2cc(F)c(F)c(F)c2F)[C@@H]3C)o1 [Compound 4, (R)-(8-methyl-3-(5-methylfuran-2-yl)-5,6-dihydro-[1,2,4]triazolo[4,3-a]pyrazin-7(8H)-yl)(2,3,4,5-tetrafluorophenyl)methanone]"
15000,21,21,78,5900,31,"C[C@@H]1c2nnc(-c3csc(C(F)(F)F)n3)n2CCN1C(=O)c1ccc(Cl)cc1 [Compound 18, (R)-(4-chlorophenyl)(8-methyl-3-(2-(trifluoromethyl)thiazol-4-yl)-5,6-dihydro-[1,2,4]triazol[4,3-a]pyrazin-7(8H)-yl)methanone]"
6900,27,27,76,4200,36,"Cc1ccc(-c2nnc3n2CCN(C(=O)c2ccc(Cl)c(Cl)c2)[C@@H]3C)o1 [Compound 11, (R)-(3,4-dichlorophenyl)(8-methyl-3-(5-methylfuran-2-yl)-5,6-dihydro-[1,2,4]triazolo[4,3-a]pyrazin-7(8H)-yl)methanone]"
